The text below walks through data of patent US20070009593A1, “Methods of treating cancer” (Indianan University Advanced Research, priority 2002, published 2007).

One assay concerns Caco 2 cells. Nature of the assay: proliferation / combination assay in colon cancer cells. Particulars: Homo sapiens; Caco 2, single agent; read-out: IC50. The class given is cell-based.
For another assay, the system named is MDA-231. Nature of the assay: MTT assay, breast cancer line. Particulars: Homo sapiens, MDA-MB-231; MDA-231, 48 hours, MTT, single agent; read-out: IC50. In kind it is cell-based. On the procedure: The drugs were tested together at the ratio of their IC50 as single agents, over a 4-log range of concentrations. […] Viable cell number was measured by MTT assay.
For orientation: Tetrazolium dyes change colour on reduction, which living cells bring about.

For another assay, the system named is H522. The assay is described as follows: MTT assay, NSCLC cell line. In kind it is cell-based. Particulars: Homo sapiens; for IC50: NCI-H522; for IC80: NCI-H522, single agent.
The test system of assay [1] is H23. The assay is described as follows: MTT assay, NSCLC cell line. In kind it is cell-based. Particulars: Homo sapiens, NCI-H23.
The subject of assay [2] is H460. The assay is described as follows: MTT assay, NSCLC cell line. The class given is cell-based. Particulars: Homo sapiens; for IC50: NCI-H460; for IC80: NCI-H460, single agent.
The test system of assay [3] is A549. Nature of the assay: MTT assay, NSCLC cell line. Particulars: Homo sapiens; for IC80: A549, MTT assay, single agent; for IC50: MTT assay. The class given is cell-based.
Assay [4] addresses T1, chymotryptic active site of the proteasome (ZGGL-AMC cleavage) (Homo sapiens, UniProt P28074).
T1 construct: Fluorometric assay of ZGGL-AMC cleavage by Caco 2 cells; endogenous in cells; host or cells: Caco 2
The assay is described as follows: fluorometric assay of ZGGL-AMC cleavage by Caco 2 cells. In kind it is cell-based. Particulars: for ZGGL-AMC cleavage: Caco 2 cells (DMSO control 0.287).

Another assay concerns HUVEC. The assay is described as follows: HUVEC cell spreading assay. The class given is cell-based, human. Particulars: 100 μM, same spreading conditions. The method, then: Cells were fixed in 3.7% formaldehyde in PBS, blocked and stained with Oregon-green phalloidin 514 (Molecular Probes), and then digitally photographed using a Zeiss inverted fluorescence microscope equipped with a CCD camera. Cell areas were measured on the digital images using the Spot program (Diagnostic Imaging).

The subject of assay [5] is H460. Nature of the assay: cell survival at 60 hours, amprenavir. The class given is cell-based. Particulars: H460, 60 hours, FIG. 4. The text has this: (§1) Three cancer cell lines (A549, H460, and H23) where treated with varying doses of amprenavir.
The subject of assay [6] is H23. Nature of the assay: cell survival at 60 hours, amprenavir. Particulars: H23, 60 hours, FIG. 4. In kind it is cell-based.
Excerpt: as §1

The subject of assay [7] is A549. The assay is described as follows: cell survival at 60 hours, amprenavir. In kind it is cell-based. Particulars: A549, 60 hours, FIG. 4.
Excerpt: as §1

Peptide text beside a SMILES is read from it. * marks the point of attachment. Cbz = O=C(OCc1ccccc1)*

Usually IC50 stands for the concentration needed to halve the response being measured. As for `Cc1ccc(-c2cc(C(F)(F)F)nn2-c2ccc(S(N)(=O)=O)cc2)cc1` [Celecoxib, celecoxib], in the assay with Caco 2 cells, the IC50 amounted to 60000 nM.
One may read the IC80 as the point of the concentration-response curve where the effect stands at 80%. As for `CC(=O)O[C@@]12CO[C@@H]1C[C@H](O)[C@@]1(C)C(=O)[C@H](O)C3=C(C)[C@@H](OC(=O)[C@H](O)[C@@H](NC(=O)OC(C)(C)C)c4ccccc4)C[C@@](O)([C@@H](OC(=O)c4ccccc4)[C@H]21)C3(C)C` [Docetaxel, docetaxel], the IC50 in the assay on MDA-231 stood at 10 nM; with H522 it was 4.9 nM; in the assay on H23 [1], 5.5 nM; with H460 [2], 5 nM; in the assay on Caco 2 cells it was 5 nM; in the assay on A549 [3], 4.5 nM. The IC80 in the assay on H522, in the assay with H460 [2] and in the assay on A549 [3] was > 50 nM throughout.
As for `O=c1[nH]cc(F)c(=O)[nH]1` [Formula 5-FU, 5-fluorouracil], the IC50 in the assay on Caco 2 cells amounted to 28000 nM.
Consider `CC(=O)N[C@@H](CSC(=O)[C@]1([C@@H](O)C(C)C)NC(=O)[C@H](C)[C@@H]1O)C(=O)O` [Lactacystin, lactacystin], for which the “blocks substrate cleavage (ZGGL-AMC)” value in assay [4] (5 μM, Caco 2 cells) is on record as “over 95%”. Further, in assay [4] (5 μM), the ZGGL-AMC cleavage turned out to be 0.022 pmol·s^1− 10^6 cells.
`CC(C)[C@H](NC(=O)OCc1ccccc1)C(=O)N[C@H](C=O)Cc1ccccc1` [MDL 28, 170] (Cbz-Val-Phe-aldehyde) returned a blocked spreading in the assay on HUVEC of 21%.
Take `O=C(O)/C(S)=C/c1ccc(I)cc1` [PD150606]: the ZGGL-AMC cleavage in assay [4] (50 μM) was 0.187 pmol·s^1− 10^6 cells. The “blocks ZGGL-AMC cleavage” value in [4] (Caco 2 cells (50 μM in table)) is “less than 30%”.
Take `CC(=O)O[C@H]1C(=O)[C@@]2(C)[C@H]([C@H](OC(=O)c3ccccc3)[C@]3(O)C[C@H](OC(=O)[C@H](O)[C@@H](NC(=O)c4ccccc4)c4ccccc4)C(C)=C1C3(C)C)[C@]1(OC(C)=O)CO[C@@H]1C[C@@H]2O` [Paclitaxel, paclitaxel]: the IC50 in the assay on H522 stood at 105 nM; with H23 [1] it was 110 nM; in the assay with H460 [2], 120 nM; in the assay on Caco 2 cells, 400 nM; with A549 [3], 90 nM. Further, the IC80 with H522, in the assay on H460 [2] and in the assay on A549 [3] was > 200 nM in each case.
In the case of amprenavir, the IC50 in the assay with H460 [5], with H23 [6] and in the assay with A549 [7] was 4000 to 5000 nM throughout.
